Columns and labels:
[1] = target: T1, Oxysterols receptor LXR-beta (Homo sapiens, UniProt P55055); assay: Agonist activity at LXRbeta by FRET assay; type: functional
T1 sequence (P55055 whole entry): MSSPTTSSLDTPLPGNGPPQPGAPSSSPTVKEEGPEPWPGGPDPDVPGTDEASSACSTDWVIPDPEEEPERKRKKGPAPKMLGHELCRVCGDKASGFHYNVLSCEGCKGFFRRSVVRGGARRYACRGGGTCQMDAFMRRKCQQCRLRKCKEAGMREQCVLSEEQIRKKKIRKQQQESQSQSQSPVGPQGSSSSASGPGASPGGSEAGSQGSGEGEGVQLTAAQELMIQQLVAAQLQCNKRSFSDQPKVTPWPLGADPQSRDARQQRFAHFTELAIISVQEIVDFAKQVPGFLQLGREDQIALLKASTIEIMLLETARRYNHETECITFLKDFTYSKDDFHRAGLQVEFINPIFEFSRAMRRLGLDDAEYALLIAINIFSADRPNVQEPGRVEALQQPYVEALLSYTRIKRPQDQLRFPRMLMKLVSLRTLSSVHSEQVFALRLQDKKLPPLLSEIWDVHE

[2] = target: T2, Oxysterols receptor LXR-alpha (Homo sapiens, UniProt Q13133); assay: Agonist activity at LXRalpha by FRET assay; type: functional
T2 sequence (Q13133 whole entry): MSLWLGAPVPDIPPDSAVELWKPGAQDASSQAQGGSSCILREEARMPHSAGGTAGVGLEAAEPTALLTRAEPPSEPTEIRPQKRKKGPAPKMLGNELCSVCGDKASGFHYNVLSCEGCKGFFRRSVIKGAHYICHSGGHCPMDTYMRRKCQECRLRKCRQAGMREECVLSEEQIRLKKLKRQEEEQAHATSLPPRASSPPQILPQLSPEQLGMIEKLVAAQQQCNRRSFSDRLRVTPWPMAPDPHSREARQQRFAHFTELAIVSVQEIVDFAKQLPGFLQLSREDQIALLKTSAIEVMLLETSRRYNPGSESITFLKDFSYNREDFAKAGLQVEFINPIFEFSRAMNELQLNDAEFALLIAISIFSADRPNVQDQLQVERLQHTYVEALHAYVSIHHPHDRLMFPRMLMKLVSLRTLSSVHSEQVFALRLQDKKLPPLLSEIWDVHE

[3] = target: T3, Oxysterols receptor LXR-beta (Homo sapiens) (UniProt P55055); assay: Agonist activity at LXRbeta by FRET assay relative to GW-3965A; type: functional; design: concentration or dose not given beside the values
T3 sequence (whole entry): T1 sequence (P55055 whole entry)

[4] = Half life in Sprague-Dawley rat at 1.1 mg/kg, iv; type: ADME, organism-based; design: dose 1.1 mg/kg, route intravenous; conditions: in vivo
[5] = Plasma clearance in Sprague-Dawley rat at 1.1 mg/kg, iv or 2.1 mg/kg, po; type: ADME, organism-based
Mus musculus = species on record: Mus musculus; assay: Increase in ABCA1 expression in mouse macrophages by cholesterol efflux assay
[6] = Volume of distribution at steady state in Sprague-Dawley rat at 1.1 mg/kg, iv or 2.1 mg/kg, po; type: ADME, organism-based; conditions: in vivo, read-out: Vdss
[7] = Oral bioavailability in Sprague-Dawley rat at 2.1 mg/kg; type: ADME, organism-based; conditions: in vivo
[8] = Half life in Sprague-Dawley rat at 2.1 mg/kg, po; type: ADME, organism-based; design: dose 2.1 mg/kg, route oral; conditions: in vivo
[9] = Cmax in Sprague-Dawley rat at 2.1 mg/kg, po; type: ADME, organism-based; design: dose 2.1 mg/kg, route oral; conditions: in vivo
[10] = target: T4, Oxysterols receptor LXR-alpha (Homo sapiens) (UniProt Q13133); assay: Agonist activity at LXRalpha by FRET assay relative to GW-3965A; type: functional
T4 sequence (whole entry): T2 sequence (Q13133 whole entry)

Row | Compound | EC50 [1] [nM] | EC50 [2] [nM] | Activity [3] [%] | half-life [4] [h] | clearance [5] [mL/min/kg] | EC50 (Mus musculus) [nM] | Vd [6] [L/kg] | bioavailability [7] [%] | half-life [8] [h] | Cmax [9] [ng/mL] | Activity [10] [%]
1 | FC(F)(F)c1cccc(CN(CCCOc2n[nH]c3ccccc23)CC(c2ccccc2)c2ccccc2)c1Cl | 60 | 110 | 44 | – | – | – | – | – | – | – | 17
2 | COC(=O)Cc1c[nH]c2ccc(OCCCN(Cc3cccc(C(F)(F)F)c3Cl)CC(c3ccccc3)c3ccccc3)cc12 | 288 | 630 | 36 | – | – | – | – | – | – | – | 19
3 | O=C(O)Cc1cccc(OCCCN(Cc2cccc(C(F)(F)F)c2Cl)CC(c2ccccc2)c2ccccc2)c1 | 25 | – | – | – | – | 50 | – | – | – | – | –
4 | COC(=O)c1cc(OCCCN(Cc2cccc(C(F)(F)F)c2Cl)CC(c2ccccc2)c2ccccc2)no1 | 26 | 63 | 68 | – | – | – | – | – | – | – | 65
5 | FC(F)(F)c1cccc(CN(CCCOc2ccc3[nH]ccc3c2)CC(c2ccccc2)c2ccccc2)c1Cl | 23 | 226 | 78 | – | – | – | – | – | – | – | 36
6 | Cc1cc(OCCCN(Cc2cccc(C(F)(F)F)c2Cl)CC(c2ccccc2)c2ccccc2)n[nH]1 | 15 | 23 | 30 | – | – | – | – | – | – | – | 25
7 | Cc1cc(OCCCN(Cc2cccc(C(F)(F)F)c2Cl)CC(c2ccccc2)c2ccccc2)n2ncnc2n1 | 560 | 790 | 33 | – | – | – | – | – | – | – | 25
8 | Cc1cc(C)c2c(OCCCN(Cc3cccc(C(F)(F)F)c3Cl)CC(c3ccccc3)c3ccccc3)n[nH]c2n1 | 510 | > 3000 | 25 | – | – | – | – | – | – | – | –

Further compounds by falling EC50 [1], results first:

Row | EC50 [1] [nM] | EC50 [2] [nM] | Activity [3] [%] | half-life [4] [h] | clearance [5] [mL/min/kg] | EC50 (Mus musculus) [nM] | Vd [6] [L/kg] | bioavailability [7] [%] | half-life [8] [h] | Cmax [9] [ng/mL] | Activity [10] [%] | Compound
9 | 15 | 60 | 104 | – | – | 5 | – | – | – | – | 90 | FC(F)(F)c1cccc(CN(CCCOc2cccc3[nH]ccc23)CC(c2ccccc2)c2ccccc2)c1Cl
10 | 12 | 39 | 86 | – | – | – | – | – | – | – | 57 | Cn1ccc2c(OCCCN(Cc3cccc(C(F)(F)F)c3Cl)CC(c3ccccc3)c3ccccc3)cccc21
11 | 7 | 20 | 72 | – | – | – | – | – | – | – | 50 | CS(=O)(=O)n1ccc2c(OCCCN(Cc3cccc(C(F)(F)F)c3Cl)CC(c3ccccc3)c3ccccc3)cccc21
12 | 4 | 14 | 105 | 1.35 | 14.6 | 15 | 1.15 | 45.4 | 2.9 | 1810 | 132 | O=C(O)Cn1ccc2c(OCCCN(Cc3cccc(C(F)(F)F)c3Cl)CC(c3ccccc3)c3ccccc3)cccc21
